Measured values: ChEMBL document CHEMBL6134907, “Synthesis of 5,9- and 5,8-Diaminoalkoxy Substituted Benzophenanthridinone Analogues as Tyrosyl-DNA Phosphodiesterase 1 Inhibitors and Their Radiosensitizing Activity” (J Med Chem, 2025)
Activity calls are given as the source filed them. No cut-off for these calls is given here.

Key:
HCT-116 [1] = experiment: Induction of 4GY ionizing radiation (IR) induced apoptosis in human HCT-116 cells assessed as viable cells at 10 uM measured after 24 hrs by FITC Annexin V/PI apoptosis detection assay (reference value: 66.88%); type: functional; settings: read-out: Activity
[2] = Induction of 4GY ionizing radiation (IR) induced cell cycle arrest in human HCT-116 cells assessed as accumulation of cells at G2/M phase at 5 uM measured after 24 hrs by Propidium iodide (PI) staining based assay (reference value: 20.51%); type: functional
[3] = Toxicity in BALB/c mouse xenografted with human HCT-116 cells assessed as change in spleen weight at 1 to 10 mg/kg, ip every day for 14 days; type: organism-based; settings: in vivo, 336 h, dose 1-10 mg/kg, time 14 day
[4] = Toxicity in human NCM460 cells assessed as 2GY ionizing radiation radiosensitisation mediated cell killing; type: cell-based
[5] = Toxicity in BALB/c mouse xenografted with human HCT-116 cells assessed as change in spleen weight at 1 to 10 mg/kg, ip every day for 14 days radiated for every 2 days once; type: organism-based; settings: in vivo, 336 h, dose 1-10 mg/kg, time 14 day
HCT-116 [6] = experiment: Effect on Lig4 expression in wild type human HCT-116 cells assessed as change in protein level at 5 to 10 uM radiated with 4 GY ionizing radiation (IR) measured after 24 hrs by Western blot analysis; type: functional, cell-based; settings: dose 5-10 µM
HCT-116 [7] = experiment: Induction of cell cycle arrest in human HCT-116 cells assessed as accumulation of cells at G0/G1 phase at 5 uM measured after 24 hrs by Propidium iodide (PI) staining based assay (reference value: 69.35%); type: functional
HCT-116 [8] = experiment: Induction of 4GY ionizing radiation (IR) induced ROS production in human HCT-116 cells assessed as mitochondrial dysfunction by measuring mitochondrial membrane potential loss at 10 uM measured after 24 hrs by JC-1 staining analysis; type: functional, cell-based
[9] = MRT infinity in male Sprague-Dawley rat at 1 mg/kg, iv measured up to 24 hrs by LCMS-MS analysis; type: ADME, organism-based; settings: in vivo
[10] = AUClast in male Sprague-Dawley rat at 1 mg/kg, iv measured up to 24 hrs by LCMS-MS analysis; type: ADME, organism-based; settings: in vivo
SW480 = experiment: Synergistic cytotoxicity against human SW480 cells assessed as combination index at 5 uM incubated for 48 hrs in presence of 2GY ionizing radiation (IR); type: functional
HCT-116 [11] = experiment: Effect on Lig4 expression in wild type human HCT-116 cells assessed as change in mRNA level at 5 to 10 uM radiated with 4 GY ionizing radiation (IR) measured after 24 hrs by qRT-PCR analysis; type: functional, cell-based; settings: dose 5-10 µM
[12] = Induction of 4GY ionizing radiation (IR) induced cell cycle arrest in human HCT-116 cells assessed as accumulation of cells at G0/G1 phase at 10 uM measured after 24 hrs by Propidium iodide (PI) staining based assay (reference value: 65.99%); type: functional
HCT-116 [13] = experiment: Induction of 4GY ionizing radiation (IR) induced apoptosis in human HCT-116 cells measured after 24 hrs by TUNEL staining based analysis; type: functional, cell-based; settings: dose 5-10 µM
RKO = experiment: Synergistic cytotoxicity against human RKO cells assessed as combination index at 5 uM incubated for 48 hrs in presence of 2GY ionizing radiation (IR); type: functional
HCT-116 [14] = experiment: Induction of PIG3 transcription level in human HCT-116 cells measured after 24 hrs treated with 4 GY ionizing radiation (IR); type: functional, cell-based; settings: dose 5-10 µM
HCT-116 [15] = experiment: Induction of ROS generation in human HCT-116 cells assessed as fold increase in intracellular ROS level at 10 uM under […] ionizing radiation (IR) measured after 20 mins by ELIASA analysis; type: functional
HCT-116 [16] = experiment: Downregulation of cell cycle pathway in human HCT-116 cells at 5 uM measured after 24 hrs by KEGG analysis; type: functional, cell-based
[17] = Toxicity in BALB/c mouse xenografted with human HCT-116 cells assessed as change in heart weight at 1 to 10 mg/kg, ip every day for 14 days radiated for every 2 days once; type: organism-based; settings: in vivo, 336 h, dose 1-10 mg/kg, time 14 day
HCT-116 [18] = experiment: Effect on Lig4 expression in wild type human HCT-116 cells assessed as change in mRNA level at 5 to 10 uM measured after 24 hrs by qRT-PCR analysis; type: functional, cell-based; settings: dose 5-10 µM
HCT-116 [19] = experiment: Induction of apoptosis in human HCT-116 cells assessed as late apoptotic cells at 5 uM measured after 24 hrs by FITC Annexin V/PI apoptosis detection assay (reference value: 0%); type: functional
HCT-116 [20] = experiment: Reduction of XRCC4 expression in wild type human HCT-116 cells assessed as reduction in mRNA level at 5 to 10 uM radiated with 4 GY ionizing radiation (IR) measured after 24 hrs by qRT-PCR analysis; type: functional, cell-based; settings: dose 5-10 µM
HCT-116 [21] = experiment: Induction of PIG3 expression in human HCT-116 cells xenografted BALB/c mouse tumor at 5 to 10 mg/kg, ip every day for 14 days by immunohistochemical analysis; type: functional, organism-based; settings: dose 5-10 mg/kg, time 14.0 day
[22] = MRT infinity in male Sprague-Dawley rat at 5 mg/kg, IG measured up to 24 hrs by LCMS-MS analysis; type: ADME, organism-based; settings: in vivo, po
HCT-116 [23] = experiment: Suppression of ionizing radiation (IR) induced DNA damage in human wild type HCT-116 cells assessed as HR repair activity by measuring GFP positive cells at 1 uM measured after 24 hrs by flow cytometry; type: functional, cell-based
HCT-116 [24] = experiment: Radiosensitizing activity in human HCT-116 cells assessed as induction of 2 GY ionizing radiation (IR) induced cell killing effect; type: functional, cell-based
[25] = Cmax in male Sprague-Dawley rat at 5 mg/kg, IG measured up to 24 hrs by LCMS-MS analysis; type: ADME, organism-based; settings: in vivo, po
HCT-116 [26] = experiment: Induction of ROS generation in human HCT-116 cells assessed as fold increase in intracellular ROS level at 5 uM under 4GY ionizing radiation (IR) measured after 20 mins by ELIASA analysis; type: functional
HCT-116 [27] = experiment: Induction of ROS generation in human HCT-116 cells assessed as intracellular ROS level at 10 uM under 4GY ionizing radiation (IR) measured after 20 mins by flow cytometry (reference value: 7.2%); type: functional
A549 = experiment: Radiosensitizing activity in human A549 cells assessed as sensitization of 2 GY ionizing radiation induced decrease in cell survival by colony formation assay; type: functional, cell-based
[28] = biological target: Tyrosyl-DNA phosphodiesterase 1 (Homo sapiens, UniProt Q9NUW8); experiment: Binding affinity to TDP1 in human HCT-116 cells assessed as increase in thermal stability by Cellular Thermal Shift Assay (CETSA); type: cell-based
HCT-116 [29] = experiment: Induction of ionizing radiation (IR) induced gamma-H2AX level in human HCT-116 cells at 5 uM measured after 3 hrs by Western blot analysis; type: functional, cell-based
HCT-116 [30] = experiment: Synergistic cytotoxicity against human HCT116 cells assessed as combination index at 5 uM incubated for 48 hrs in presence of 2GY ionizing radiation (IR); type: functional
[31] = Suppression of ionizing radiation (IR) induced DNA damage in human SgTDP1-HCT-116 cells (TDP1 knockout) assessed as NHEJ repair activity by measuring GFP positive cells at 1 uM measured after 24 hrs by flow cytometry (reference value: 100%); type: functional

Tyrosyl-DNA phosphodiesterase 1, sequence (Q9NUW8 whole entry): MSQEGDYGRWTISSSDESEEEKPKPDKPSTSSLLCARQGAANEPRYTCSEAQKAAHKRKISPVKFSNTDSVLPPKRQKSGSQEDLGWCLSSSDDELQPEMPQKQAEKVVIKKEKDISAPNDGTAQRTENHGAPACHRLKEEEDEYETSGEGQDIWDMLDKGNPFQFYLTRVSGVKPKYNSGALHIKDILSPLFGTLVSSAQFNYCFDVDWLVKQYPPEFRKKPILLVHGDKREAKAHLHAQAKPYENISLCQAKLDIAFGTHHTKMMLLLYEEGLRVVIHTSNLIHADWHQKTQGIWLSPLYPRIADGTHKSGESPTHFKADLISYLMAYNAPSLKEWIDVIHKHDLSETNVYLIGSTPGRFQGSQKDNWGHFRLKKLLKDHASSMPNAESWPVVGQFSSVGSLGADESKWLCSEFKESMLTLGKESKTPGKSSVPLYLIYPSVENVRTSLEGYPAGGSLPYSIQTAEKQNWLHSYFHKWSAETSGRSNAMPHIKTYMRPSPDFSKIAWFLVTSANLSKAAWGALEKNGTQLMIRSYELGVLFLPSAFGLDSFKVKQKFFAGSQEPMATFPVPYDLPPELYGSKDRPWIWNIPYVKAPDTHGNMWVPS

COc1cc2c(=O)n(CCN(C)C)c3c4cc5c(cc4ccc3c2cc1OCCN1CCOCC1)OCO5
viability at 10 µM (HCT-116 [1]): 55.5%
Activity [2]: 43.13%
Activity [3]: Non-toxic
Activity [4]: Non-toxic
Activity [5]: Non-toxic
Activity (HCT-116 [6]): inactive
Activity (HCT-116 [7]): 69.89%
Activity (HCT-116 [8]): Active
MRT inf [9]: 3.33 h
AUC(0-t) at 24 h [10]: 247 ng·h/mL
CI (SW480): <0.3
Activity (HCT-116 [11]): inactive
Activity [12]: 20.79%
Activity (HCT-116 [13]): Dose-dependent-effect
CI (RKO): <0.3
Activity (HCT-116 [14]): Dose-dependent-effect
fold change (FC) (HCT-116 [15]): 2.1
Activity (HCT-116 [16]): Active
Activity [17]: Non-toxic
Activity (HCT-116 [18]): inactive
Activity (HCT-116 [19]): 5.99%
Activity (HCT-116 [20]): Active
Activity (HCT-116 [21]): Active
MRT inf [22]: 7.06 h
Activity (HCT-116 [23]): inactive
Activity (HCT-116 [24]): Active
Cmax [25]: 70.3 ng/mL
fold change (FC) (HCT-116 [26]): 1.7
Activity (HCT-116 [27]): 27.6%
Activity (A549): inactive
Activity [28]: Active; Thermal Melting Curve Of Tdp1 Protein Shifted Left
Activity (HCT-116 [29]): Active
CI (HCT-116 [30]): <0.3
Activity [31]: 7%
